SMILES strings stand for the structures. Bounds are passed on as bounds.

A word on the EC50: it is the concentration at which the effect is half-maximal.

Assay in all cases: Method 1: intracellular Ca2+ release (FLIPR, Calcium 5) in recombinant CHO-K1 cells
Assay type in all cases: cell-based

The target of one assay is T1, human S1PR1 receptor (Homo sapiens, UniProt P21453).
T1 construct: host or cells: CHO-K1
The settings on record: (1): determined with method 1; read-out: S1P1 EC50. The gist of the method: (§1)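 For antagonist mode, compounds were pre-incubated 10 min before phospho-fingolimod at EC80; in agonist mode, compounds were added directly to Calcium 5-loaded CHO-K1 cells co-expressing Gq/i5. Fluorescence was measured on FLIPR, and EC50 was fitted relative to the phospho-fingolimod curve.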

Another assay deals with T2, human S1PR4 receptor (Homo sapiens, UniProt O95977).
T2 construct: host or cells: CHO-K1
T2 sequence (O95977 1-384): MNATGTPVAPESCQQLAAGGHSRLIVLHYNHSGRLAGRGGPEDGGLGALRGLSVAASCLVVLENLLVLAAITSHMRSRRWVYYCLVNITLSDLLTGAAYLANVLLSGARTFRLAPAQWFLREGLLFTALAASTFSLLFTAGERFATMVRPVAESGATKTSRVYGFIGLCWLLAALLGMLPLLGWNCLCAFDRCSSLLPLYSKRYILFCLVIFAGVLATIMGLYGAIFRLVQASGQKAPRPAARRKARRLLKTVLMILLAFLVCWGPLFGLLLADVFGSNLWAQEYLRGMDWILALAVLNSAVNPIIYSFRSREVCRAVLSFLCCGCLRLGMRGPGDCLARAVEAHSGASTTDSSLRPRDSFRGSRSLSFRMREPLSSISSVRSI
To be noted: (1): determined with method 1; read-out: S1P4 EC50. The gist of the method: as §1

In the next assay the target is T3, human S1PR5 receptor (Homo sapiens, UniProt Q9H228).
T3 construct: host or cells: CHO-K1
T3 sequence (Q9H228 whole entry): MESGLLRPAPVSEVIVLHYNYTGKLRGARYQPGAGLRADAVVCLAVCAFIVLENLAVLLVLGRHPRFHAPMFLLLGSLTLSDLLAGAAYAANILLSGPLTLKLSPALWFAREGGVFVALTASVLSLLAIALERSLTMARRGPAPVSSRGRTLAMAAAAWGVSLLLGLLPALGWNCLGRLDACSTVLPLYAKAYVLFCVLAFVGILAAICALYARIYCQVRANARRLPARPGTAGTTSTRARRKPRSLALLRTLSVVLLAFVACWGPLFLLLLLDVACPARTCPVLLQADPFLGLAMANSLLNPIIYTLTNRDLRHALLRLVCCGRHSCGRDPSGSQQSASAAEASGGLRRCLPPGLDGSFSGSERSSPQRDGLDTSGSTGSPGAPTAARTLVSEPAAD
To be noted: agonist potency, determined with method 1 (symbols A-D); read-out: S1P5 EC50 range. The gist of the method: as §1

T1 sequence (P21453 whole entry): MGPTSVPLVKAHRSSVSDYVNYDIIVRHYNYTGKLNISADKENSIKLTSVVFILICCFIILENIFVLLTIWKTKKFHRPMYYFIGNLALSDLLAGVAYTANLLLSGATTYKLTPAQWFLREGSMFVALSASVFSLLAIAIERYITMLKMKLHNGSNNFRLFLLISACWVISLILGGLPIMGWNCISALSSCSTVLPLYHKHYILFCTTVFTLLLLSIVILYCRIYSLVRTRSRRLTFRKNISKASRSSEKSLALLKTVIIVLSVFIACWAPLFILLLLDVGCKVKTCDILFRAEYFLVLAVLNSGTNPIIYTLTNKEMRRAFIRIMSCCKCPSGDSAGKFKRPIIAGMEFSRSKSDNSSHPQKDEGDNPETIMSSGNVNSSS

On to `O=C(O)CN1CCc2nc(-c3ccc(OCc4cc(F)cc(F)c4)cc3)ncc2C1` [Compound 31, 2-(2-(4-((3,5-difluorobenzyl)oxy)phenyl)-7,8-dihydropyrido[4,3-d]pyrimidin-6(5H)-yl)acetic acid], for which the EC50 was over 1000 nM at human S1PR1 receptor, over 1000 nM on human S1PR4 receptor and 100 to 1000 nM on human S1PR5 receptor.
For `CCc1cccc(Cl)c1COc1nc2c(cc1F)CN(C1CC(C(=O)O)C1)CC2` (stereo not drawn) [Compound 183, 3-(2-((2-chloro-6-ethylbenzyl)oxy)-3-fluoro-7,8-dihydro-1,6-naphthyridin-6(5H)-yl)cyclobutanecarboxylic acid], the results for the half-maximal effective concentration (EC50) on human S1PR1 receptor, at human S1PR4 receptor and at human S1PR5 receptor were over 1000 nM, over 1000 nM and 100 to 1000 nM, respectively.
Regarding `O=C(O)C1CC(N2CCc3nc(C#Cc4ccccc4)c(F)cc3C2)C1` (stereo not drawn) [Compound 184, 3-(3-fluoro-2-(phenylethynyl)-7,8-dihydro-1,6-naphthyridin-6(5H)-yl)cyclobutanecarboxylic acid], the EC50 was over 1000 nM at human S1PR1 receptor, over 1000 nM on human S1PR4 receptor and 1000 to 10000 nM at human S1PR5 receptor.
`O=C(O)C1CC(N2CCc3nc(-c4cccc(OCc5ccccc5)c4)cnc3C2)C1` (stereo not drawn) [Compound 208, 3-(2-(3-(benzyloxy)phenyl)-7,8-dihydropyrido[3,4-b]pyrazin-6(5H)-yl)cyclobutanecarboxylic acid]: the figures for the half-maximal effective concentration (EC50) on human S1PR1 receptor, at human S1PR4 receptor and on human S1PR5 receptor were over 1000 nM, over 1000 nM and 1000 to 10000 nM, respectively.
Take `CC(CC(=O)O)CN1CCc2nc(-c3ccc(OCc4cccc(Cl)c4)cc3)cnc2C1` (stereo not drawn) [Compound 209, 4-(2-(4-((3-chlorobenzyl)oxy)phenyl)-7,8-dihydropyrido[3,4-b]pyrazin-6(5H)-yl)-3-methylbutanoic acid]: the EC50 at human S1PR1 receptor was over 1000 nM; at human S1PR4 receptor, over 1000 nM; on human S1PR5 receptor it was under 10 nM.
`CC(C)(CC(=O)O)CN1CCc2nc(-c3ccc(OCc4cccc(Cl)c4)cc3)cnc2C1` [Compound 211, 4-(2-(4-((3-chlorobenzyl)oxy)phenyl)-7,8-dihydropyrido[3,4-b]pyrazin-6(5H)-yl)-3,3-dimethylbutanoic acid]: the 50% effective concentration (EC50) on human S1PR1 receptor is over 1000 nM; on human S1PR4 receptor, over 1000 nM; on human S1PR5 receptor, 1000 to 10000 nM.
Turning to `CC(C)(CC(=O)O)CN1CCc2nc(-c3ccc(OCc4cccc(Cl)c4)cc3)ncc2C1` [Compound 216, 4-(2-(4-((3-chlorobenzyl)oxy)phenyl)-7,8-dihydropyrido[4,3-d]pyrimidin-6(5H)-yl)-3,3-dimethylbutanoic acid], the EC50 on human S1PR1 receptor is over 1000 nM; at human S1PR4 receptor, over 1000 nM; on human S1PR5 receptor, 1000 to 10000 nM.
Turning to `CC(C)(CC(=O)O)CN1CCc2nc(-c3ccc(OCc4ccc(Cl)c(Cl)c4)cc3)ncc2C1` [Compound 217, 4-(2-(4-((3,4-dichlorobenzyl)oxy)phenyl)-7,8-dihydropyrido[4,3-d]pyrimidin-6(5H)-yl)-3,3-dimethylbutanoic acid], the results for the EC50 at human S1PR1 receptor, at human S1PR4 receptor and at human S1PR5 receptor were over 1000 nM, over 1000 nM and 100 to 1000 nM, respectively.
`CC(CC(=O)O)CN1CCc2nc(-c3ccc(CCc4ccc(Cl)cc4)cc3F)ncc2C1` (stereo not drawn) [Compound 255, 4-(2-(4-(4-chlorophenethyl)-2-fluorophenyl)-7,8-dihydropyrido[4,3-d]pyrimidin-6(5H)-yl)-3-methylbutanoic acid]: the values for the EC50 at human S1PR1 receptor, at human S1PR4 receptor and at human S1PR5 receptor were over 1000 nM, over 1000 nM and under 10 nM, respectively.
For the compound `Cc1cc(-c2ncc3c(n2)CCN(CC(C)CC(=O)O)C3)ccc1OCc1cccc(F)c1F` (stereo not drawn) [Compound 256, 4-(2-(4-((2,3-difluorobenzyl)oxy)-3-methylphenyl)-7,8-dihydropyrido[4,3-d]pyrimidin-6(5H)-yl)-3-methylbutanoic acid], the concentration giving a half-maximal response (EC50) on human S1PR1 receptor was over 1000 nM; at human S1PR4 receptor, over 1000 nM; at human S1PR5 receptor, under 10 nM.
`Cc1cc(-c2ncc3c(n2)CCN(C[C@@H](C)CC(=O)O)C3)ccc1OCc1ccccc1` [Compound 261, (S)-4-(2-(4-(benzyloxy)-3-methylphenyl)-7,8-dihydropyrido[4,3-d]pyrimidin-6(5H)-yl)-3-methylbutanoic acid]: the 50% effective concentration (EC50) on human S1PR1 receptor is over 1000 nM; on human S1PR4 receptor it was over 1000 nM; at human S1PR5 receptor it was 10 to 100 nM.

The values above are taken from patent publication US10556907B2 (AbbVie Inc., priority 2015, dated 2020).
